Measured values taken from patent publication US12077503B2, “Substituted cyclic amides and their use as herbicides” (FMC CORPORATION, priority 2015, dated 2024).

Experiments:
Type in all cases: in vivo
[1] = test system: barnyardgrass (Echinochloa crus-galli); assay: Test G Pre-Emergence Protocol; conditions: Echinochloa crus-galli, pre-emergence, 312 h, evaluated after 13 days; for pest or weed control at 15.625 g/ha: 15.625 g ai/ha, read-out: Barnyard grass damage rating (100=total damage to plant; 0=no damage to plant); for pest or weed control at 62.5 g/ha: 62.5 g ai/ha, 100=total damage to plant, 0=no damage to plant, read-out: plant damage rating, Barnyardgrass; for pest or weed control at 250 g/ha: 250 g ai/ha, read-out: Barnyardgrass damage rating (100=total damage to plant; 0=no damage to plant)
How it was run: (§1)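 Visual injury (0–100) at day 13 after a single pre-emergence spray. Rates: 15.625, 62.5, 250 g/ha in acetone–water 50:50 with 0.5% Tween 20. Growth conditions: 24/16° C, 14 h light, 65% humidity.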

corn (Zea mays) [2] = assay: Test G Pre-Emergence Protocol; conditions: Zea mays, pre-emergence, 312 h, evaluated after 13 days; for plant injury at 15.625 g/ha: 15.625 g ai/ha; for plant injury at 15.625 g/ha / plant injury at 250 g/ha: read-out: Corn damage rating (100=total damage to plant; 0=no damage to plant); for plant injury at 62.5 g/ha: 62.5 g ai/ha, 100=total damage to plant, 0=no damage to plant, read-out: plant damage rating, Corn; for plant injury at 250 g/ha: 250 g ai/ha
How it was run: as §1

[3] = test system: giant foxtail (Setaria faberi); assay: Test G Pre-Emergence Protocol; conditions: Setaria faberi, pre-emergence, 312 h, evaluated after 13 days; for pest or weed control at 15.625 g/ha: 15.625 g ai/ha; for pest or weed control at 15.625 g/ha / pest or weed control at 250 g/ha: read-out: Foxtail, Giant damage rating (100=total damage to plant; 0=no damage to plant); for pest or weed control at 62.5 g/ha: 62.5 g ai/ha, 100=total damage to plant, 0=no damage to plant, read-out: plant damage rating, Foxtail, Giant; for pest or weed control at 250 g/ha: 250 g ai/ha
How it was run: as §1

[4] = test system: ivy-leaved morning glory (Ipomoea hederacea); assay: Test G Pre-Emergence Protocol; conditions: Ipomoea, pre-emergence, 312 h, evaluated after 13 days; for pest or weed control at 15.625 g/ha: 15.625 g ai/ha, read-out: Morning-glory, Ivy-leaved damage rating (100=total damage to plant; 0=no damage to plant); for pest or weed control at 62.5 g/ha: 62.5 g ai/ha, 100=total damage to plant, 0=no damage to plant, read-out: plant damage rating, Morningglory, Ivy-leaved; for pest or weed control at 250 g/ha: 250 g ai/ha, read-out: Morningglory, Ivy-leaved damage rating (100=total damage to plant; 0=no damage to plant)
How it was run: as §1

[5] = test system: redroot pigweed (Amaranthus retroflexus); assay: Test G Pre-Emergence Protocol; conditions: Amaranthus retroflexus, pre-emergence, 312 h, evaluated after 13 days; for pest or weed control at 15.625 g/ha: 15.625 g ai/ha; for pest or weed control at 15.625 g/ha / pest or weed control at 250 g/ha: read-out: Pigweed, Redroot damage rating (100=total damage to plant; 0=no damage to plant); for pest or weed control at 62.5 g/ha: 62.5 g ai/ha, 100=total damage to plant, 0=no damage to plant, read-out: plant damage rating, Pigweed, Redroot; for pest or weed control at 250 g/ha: 250 g ai/ha
How it was run: as §1

[6] = test system: velvetleaf (Abutilon theophrasti); assay: Test G Pre-Emergence Protocol; conditions: Abutilon theophrasti, pre-emergence, 312 h, evaluated after 13 days; for pest or weed control at 15.625 g/ha: 15.625 g ai/ha; for pest or weed control at 15.625 g/ha / pest or weed control at 250 g/ha: read-out: Velvetleaf damage rating (100=total damage to plant; 0=no damage to plant); for pest or weed control at 62.5 g/ha: 62.5 g ai/ha, 100=total damage to plant, 0=no damage to plant, read-out: plant damage rating, Velvetleaf; for pest or weed control at 250 g/ha: 250 g ai/ha
How it was run: as §1

[7] = test system: barnyardgrass (Echinochloa crus-galli); assay: Test G Post-Emergence Protocol; conditions: Echinochloa crus-galli, post-emergence, 312 h; for pest or weed control at 15.625 g/ha: 15.625 g ai/ha, evaluated after 13 days (100=total damage to plant; 0=no damage to plant), read-out: Barnyardgrass damage rating; for pest or weed control at 62.5 g/ha: 62.5 g ai/ha, read-out: Barnyardgrass damage rating (100=total damage to plant; 0=no damage to plant); for pest or weed control at 62.5 g/ha / pest or weed control at 250 g/ha: evaluated after 13 days; for pest or weed control at 250 g/ha: 250 g ai/ha, read-out: damage to plant, Barnyardgrass (100=total damage to plant; 0=no damage to plant)
How it was run: (§2)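 Eight days post-sowing, plants received a spray of test compound (acetone/water 50:50, 0.5% Tween 20) at 15.625, 62.5 or 250 g/ha. Glasshouse regime thereafter: 24/16 °C, 14 h light, 65% humidity. Assessment after 13 days on a 0–100 damage scale.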

corn (Zea mays) [8] = assay: Test G Post-Emergence Protocol; conditions: Zea mays, post-emergence, 312 h; for plant injury at 15.625 g/ha: 15.625 g ai/ha, evaluated after 13 days (100=total damage to plant; 0=no damage to plant), read-out: Corn damage rating; for plant injury at 62.5 g/ha: 62.5 g ai/ha, read-out: Corn damage rating (100=total damage to plant; 0=no damage to plant); for plant injury at 62.5 g/ha / plant injury at 250 g/ha: evaluated after 13 days; for plant injury at 250 g/ha: 250 g ai/ha, read-out: damage to plant, Corn (100=total damage to plant; 0=no damage to plant)
How it was run: as §2

[9] = test system: giant foxtail (Setaria faberi); assay: Test G Post-Emergence Protocol; conditions: Setaria faberi, post-emergence, 312 h; for pest or weed control at 15.625 g/ha: 15.625 g ai/ha, evaluated after 13 days (100=total damage to plant; 0=no damage to plant), read-out: Foxtail, Giant damage rating; for pest or weed control at 62.5 g/ha: 62.5 g ai/ha, read-out: Foxtail, Giant damage rating (100=total damage to plant; 0=no damage to plant); for pest or weed control at 62.5 g/ha / pest or weed control at 250 g/ha: evaluated after 13 days; for pest or weed control at 250 g/ha: 250 g ai/ha, read-out: damage to plant, Foxtail, Giant (100=total damage to plant; 0=no damage to plant)
How it was run: as §2

[10] = test system: ivy-leaved morning glory (Ipomoea hederacea); assay: Test G Post-Emergence Protocol; conditions: Ipomoea, post-emergence, 312 h; for pest or weed control at 15.625 g/ha: 15.625 g ai/ha, evaluated after 13 days (100=total damage to plant; 0=no damage to plant), read-out: Morningglory, Ivy-leaved damage rating; for pest or weed control at 62.5 g/ha: 62.5 g ai/ha, read-out: Morningglory, Ivy-leaved damage rating (100=total damage to plant; 0=no damage to plant); for pest or weed control at 62.5 g/ha / pest or weed control at 250 g/ha: evaluated after 13 days; for pest or weed control at 250 g/ha: 250 g ai/ha, read-out: damage to plant, Morningglory, Ivy-leaved (100=total damage to plant; 0=no damage to plant)
How it was run: as §2

[11] = test system: redroot pigweed (Amaranthus retroflexus); assay: Test G Post-Emergence Protocol; conditions: Amaranthus retroflexus, post-emergence, 312 h; for pest or weed control at 15.625 g/ha: 15.625 g ai/ha, evaluated after 13 days (100=total damage to plant; 0=no damage to plant), read-out: Pigweed, Redroot damage rating; for pest or weed control at 62.5 g/ha: 62.5 g ai/ha, read-out: Pigweed, Redroot damage rating (100=total damage to plant; 0=no damage to plant); for pest or weed control at 62.5 g/ha / pest or weed control at 250 g/ha: evaluated after 13 days; for pest or weed control at 250 g/ha: 250 g ai/ha, read-out: damage to plant, Pigweed, Redroot (100=total damage to plant; 0=no damage to plant)
How it was run: as §2

[12] = test system: velvetleaf (Abutilon theophrasti); assay: Test G Post-Emergence Protocol; conditions: Abutilon theophrasti, post-emergence, 312 h; for pest or weed control at 15.625 g/ha: 15.625 g ai/ha, evaluated after 13 days (100=total damage to plant; 0=no damage to plant), read-out: Velvetleaf damage rating; for pest or weed control at 62.5 g/ha: 62.5 g ai/ha, read-out: Velvetleaf damage rating (100=total damage to plant; 0=no damage to plant); for pest or weed control at 62.5 g/ha / pest or weed control at 250 g/ha: evaluated after 13 days; for pest or weed control at 250 g/ha: 250 g ai/ha, read-out: damage to plant, Velvetleaf (100=total damage to plant; 0=no damage to plant)
How it was run: as §2

SMILES	pest or weed control at 15.625 g/ha [1]	pest or weed control at 62.5 g/ha [1]	pest or weed control at 250 g/ha [1]	plant injury at 15.625 g/ha (corn (Zea mays) [2])	plant injury at 62.5 g/ha (corn (Zea mays) [2])	plant injury at 250 g/ha (corn (Zea mays) [2])	pest or weed control at 15.625 g/ha [3]	pest or weed control at 62.5 g/ha [3]	pest or weed control at 250 g/ha [3]	pest or weed control at 15.625 g/ha [4]	pest or weed control at 62.5 g/ha [4]	pest or weed control at 250 g/ha [4]	pest or weed control at 15.625 g/ha [5]	pest or weed control at 62.5 g/ha [5]	pest or weed control at 250 g/ha [5]	pest or weed control at 15.625 g/ha [6]	pest or weed control at 62.5 g/ha [6]	pest or weed control at 250 g/ha [6]	pest or weed control at 15.625 g/ha [7]	pest or weed control at 62.5 g/ha [7]	also measured
CN1C[C@H](c2ccc(C(F)(F)F)cc2)[C@@H](C(=O)Nc2ncccc2[N+](=O)[O-])C1=O (racemic) [Compound 1431]	0%	0%	0%	0%	0%	0%	0%	0%	0%	0%	0%	0%	0%	0%	0%	0%	0%	0%	0%	0%	pest or weed control at 250 g/ha [7]: 0%; plant injury at 15.625 g/ha (corn (Zea mays) [8]): 0%; plant injury at 62.5 g/ha (corn (Zea mays) [8]): 0%; plant injury at 250 g/ha (corn (Zea mays) [8]): 0%; pest or weed control at 15.625 g/ha [9]: 0%; pest or weed control at 62.5 g/ha [9]: 0%; pest or weed control at 250 g/ha [9]: 0%; pest or weed control at 15.625 g/ha [10]: 0%; pest or weed control at 62.5 g/ha [10]: 0%; pest or weed control at 250 g/ha [10]: 0%; pest or weed control at 15.625 g/ha [11]: 0%; pest or weed control at 62.5 g/ha [11]: 0%; pest or weed control at 250 g/ha [11]: 40%; pest or weed control at 15.625 g/ha [12]: 0%; pest or weed control at 62.5 g/ha [12]: 0%; pest or weed control at 250 g/ha [12]: 10%
CN1C[C@H](c2ccc(C(F)(F)F)cc2)[C@@H](C(=O)Nc2ccc(Cl)cc2[N+](=O)[O-])C1=O (racemic) [Compound 1432]	0%	0%	0%	0%	0%	0%	0%	0%	0%	0%	0%	0%	0%	0%	0%	0%	0%	0%	0%	0%	pest or weed control at 250 g/ha [7]: 0%; plant injury at 15.625 g/ha (corn (Zea mays) [8]): 0%; plant injury at 62.5 g/ha (corn (Zea mays) [8]): 0%; plant injury at 250 g/ha (corn (Zea mays) [8]): 0%; pest or weed control at 15.625 g/ha [9]: 0%; pest or weed control at 62.5 g/ha [9]: 0%; pest or weed control at 250 g/ha [9]: 0%; pest or weed control at 15.625 g/ha [10]: 0%; pest or weed control at 62.5 g/ha [10]: 0%; pest or weed control at 250 g/ha [10]: 0%; pest or weed control at 15.625 g/ha [11]: 0%; pest or weed control at 62.5 g/ha [11]: 0%; pest or weed control at 250 g/ha [11]: 0%; pest or weed control at 15.625 g/ha [12]: 0%; pest or weed control at 62.5 g/ha [12]: 0%; pest or weed control at 250 g/ha [12]: 0%
